# Measured values: patent publication US8729089B2 (Gilead Sciences, Inc., priority 2006, dated 2014)
# Experiments:
# [1] = CC50 assay (CellTiter-Glo) in Huh-7 HCV replicon cells; format: cell-based, human; details: human, 3 days incubation, CellTiter-Glo readout
# How it was run: (§1)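 Cytotoxicity (CC50) measured by CellTiter-Glo and antiviral activity (EC50) by luciferase signal from lysed cells, both by luminescence. Replicon-bearing Huh-7 cells, 6000 per well, incubated 3 days at 37 °C with threefold-diluted compound (0.5% DMSO for DMSO-dissolved compounds).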
# [2] = test system: HCV replicon in human hepatoma Huh-7 cell line; assay: Anti-HCV replicon assay (EC50, luciferase); format: cell-based; details: Hepatitis C virus, Huh-7, 72 h
# How it was run: as §1
Compound,CC50 at 3 days [1] [µM],EC50 [2] [µM]
"NS(=O)(=O)c1ccc(CNc2nc(NCC(F)(F)F)c3nc(-c4ccc(Cl)c(S(=O)(=O)NC5CCNCC5)c4)ccc3n2)cc1 [Example 200, 2-Chloro-N-piperidin-4-yl-5-[2-(4-sulfamoyl-benzylamino)-4-(2,2,2-trifluoro-ethylamino)-pyrido[3,2-d]pyrimidin-6-yl]-benzenesulfonamide]",< 5,< 0.1
"CCOc1nc(NCc2ccc(F)cc2)nc2ccc(-c3ccc(NC(=O)[C@H]4CCNC4)cc3)nc12 [Example 91, Pyrrolidine-3-carboxylic acid {4-[4-ethoxy-2-(4-fluoro-benzylamino)-pyrido[3,2-d]pyrimidin-6-yl]-phenyl}-amide]",< 5,< 0.1
"NS(=O)(=O)c1ccc(CNc2nc(OC3CC3)c3nc(-c4ccc(F)cc4)ccc3n2)cc1 [Example 234, 4-{[4-Cyclopropoxy-6-(4-fluoro-phenyl)-pyrido[3,2-d]pyrimidin-2-ylamino]-methyl}-benzenesulfonamide]",5 to 25,< 0.1
"CCOc1nc(NCc2ccc(S(N)(=O)=O)cc2)nc2ccc(-c3ccc(NC(=O)NC4CC4)cc3)nc12 [Example 131, 4-{[4-Ethoxy-6-(4-(3-cyclopropylureido)-phenyl)-pyrido[3,2-d]pyrimidin-2-ylamino]-methyl}-benzenesulfonamide]",5 to 25,< 0.1
"CCOc1nc(NCc2ccc(S(N)(=O)=O)cc2)nc2ccc(-c3ccc(NC(N)=O)cc3)nc12 [Example 130, 4-{[4-Ethoxy-6-(4-ureidophenyl)-pyrido[3,2-d]pyrimidin-2-ylamino]-methyl}-benzenesulfonamide]",5 to 25,< 0.1
"CC(C)(C)OC(=O)N1CC[C@@H](NS(=O)(=O)c2cc(-c3ccc4nc(NCc5ccc(S(N)(=O)=O)cc5)nc(NCC(F)(F)F)c4n3)ccc2F)C1 [Example 205, 3-{2-Fluoro-5-[2-(4-sulfamoyl-benzylamino)-4-(2,2,2-trifluoro-ethylamino)-pyrido[3,2-d]pyrimidin-6-yl]-benzenesulfonylamino}-pyrrolidine-1-carboxylic acid tert-butyl ester]",< 5,< 0.1
"CCOc1nc(NCc2ccc(F)cc2)nc2ccc(-c3ccc(F)c(Cl)c3)nc12 [Example 64, [6-(3-Chloro-4-fluoro-phenyl)-4-ethoxy-pyrido[3,2-d]pyrimidin-2-yl]-(4-fluoro-benzyl)-amine]",5 to 25,< 0.1
"CCOc1nc(NCc2ccc(F)cc2)nc2ccc(-c3ccc(NC(=O)NC4CC4)cc3)nc12 [Example 74, 1-Cyclopropyl-3-{4-[4-ethoxy-2-(4-fluoro-benzylamino)-pyrido[3,2-d]pyrimidin-6-yl]-phenyl}-urea]",5 to 25,< 0.1
"CCOc1nc(NCc2ccc(F)cc2)nc2ccc(-c3ccc(S(N)(=O)=O)cc3)nc12 [Example 83, 4-[4-Ethoxy-2-(4-fluoro-benzylamino)-pyrido[3,2-d]pyrimidin-6-yl]-benzenesulfonamide]",5 to 25,< 0.1
"CS(=O)(=O)CCNc1nc(NCc2ccc(S(N)(=O)=O)cc2)nc2ccc(-c3cnc(N)s3)nc12 [Example 148, 4-{[4-(2-Methanesulfonylethyl)-amino-6-(2-aminothiazole-5-yl)-pyrido[3,2-d]pyrimidin-2-ylamino]-methyl}-benzenesulfonamide]",5 to 25,< 0.1
"CCOc1nc(NCc2ccc(F)cc2)nc2ccc(-c3ccc4[nH]ncc4c3)nc12 [Example 77, [4-Ethoxy-6-(1H-indazol-5-yl)-pyrido[3,2-d]pyrimidin-2-yl]-(4-fluoro-benzyl)-amine]",5 to 25,< 0.1
"COCCNc1nc(NCc2ccc(F)cc2)nc2ccc(-c3ccc(F)cc3)nc12 [Example 34, N2-(4-Fluoro-benzyl)-6-(4-fluoro-phenyl)-N4-(2-methoxy-ethyl)-pyrido[3,2-d]pyrimidine-2,4-diamine]",< 5,< 0.1
"NC(=O)c1ccc(-c2ccc3nc(NCc4ccc(F)cc4)nc(NCC(F)(F)F)c3n2)cc1 [Example 272, 4-[2-(4-Fluoro-benzylamino)-4-(2,2,2-trifluoro-ethylamino)-pyrido[3,2-d]pyrimidin-6-yl]-benzamide]",< 5,< 0.1
"CCOc1nc(NCc2ccc(F)c(F)c2)nc2ccc(-c3ccc(F)cc3)nc12 [Example 35, (3,4-Difluoro-benzyl)-[4-ethoxy-6-(4-fluoro-phenyl)-pyrido[3,2-d]pyrimidin-2-yl]-amine]",5 to 25,< 0.1
"NS(=O)(=O)c1ccc(CNc2nc(Oc3cccc(F)c3)c3nc(-c4ccc(F)cc4)ccc3n2)cc1 [Example 235, 4-{[4-(3-Fluoro-phenoxy)-6-(4-fluoro-phenyl)-pyrido[3,2-d]pyrimidin-2-ylamino]-methyl}-benzenesulfonamide]",5 to 25,< 0.1
"Fc1ccc(CNc2nc(NCC(F)(F)F)c3nc(-c4ccc(F)cc4)ccc3n2)cc1 [Example 33, N2-(4-Fluoro-benzyl)-6-(4-fluoro-phenyl)-N4-(2,2,2-trifluoro-ethyl)-pyrido[3,2-d]pyrimidine-2,4-diamine]",5 to 25,< 0.1
"CC(C)Nc1nc(Nc2ccc(F)cc2)nc2ccc(-c3ccc(F)cc3)nc12 [Example 49, 6-(4-Fluoro-phenyl)-N4-isopropyl-N2-(4-fluoro-phenyl)-pyrido[3,2-d]pyrimidine-2,4-diamine]",> 25,0.25 to 2
"NS(=O)(=O)c1ccc(CNc2nc(Nc3cccc(F)c3)c3nc(-c4ccc(F)cc4)ccc3n2)cc1 [Example 229, 4-{[6-(4-Fluoro-phenyl)-4-(3-fluoro-phenylamino)-pyrido[3,2-d]pyrimidin-2-ylamino]-methyl}-benzenesulfonamide]",< 5,< 0.1
"NS(=O)(=O)c1ccc(CNc2nc(NCC(F)(F)F)c3nc(-c4ccc(O)cc4)ccc3n2)cc1 [Example 171, 4-{[6-(4-Hydroxy-phenyl)-4-(2,2,2-trifluoro-ethylamino)-pyrido[3,2-d]pyrimidin-2-ylamino]-methyl}-benzenesulfonamide]",> 25,< 0.1
"CCOc1nc(NCc2c(F)cc(F)cc2F)nc2ccc(-c3ccc(F)cc3)nc12 [Example 39, (4-Ethoxy-6-(4-fluoro-phenyl)-pyrido[3,2-d]pyrimidin-2-yl]-(2,4,6-trifluoro-benzyl)-amine]",5 to 25,< 0.1
"CCOc1nc(NCc2ccc(S(N)(=O)=O)cc2)nc2ccc(-c3cccc(N(CCO)S(C)(=O)=O)c3)nc12 [Example 140, 4-{[4-Ethoxy-6-(4-(3-(N-2-hydroxy-ethyl)methanesulfonamido)-phenyl)-pyrido[3,2-d]pyrimidin-2-ylamino]-methyl}-benzenesulfonamide]",> 25,0.1 to 0.25
"CCOc1nc(NCc2cccc(F)c2)nc2ccc(-c3ccc(F)cc3)nc12 [Example 47, [4-Ethoxy-6-(4-fluoro-phenyl)-pyrido[3,2-d]pyrimidin-2-yl]-(3-fluoro-benzyl)-amine]",5 to 25,< 0.1
"Fc1ccc(-c2ccc3nc(NCc4ccc(N5CCCC5)cc4)nc(NCC(F)(F)F)c3n2)cc1 [Example 239, 6-(4-Fluoro-phenyl)-N2-(4-pyrrolidin-1-yl-benzyl)-N4-(2,2,2-trifluoro-ethyl)-pyrido[3,2-d]pyrimidine-2,4-diamine]",5 to 25,< 0.1
"NS(=O)(=O)c1ccc(CNc2nc(NCC(F)(F)F)c3nc(-c4ccc(F)c(NS(=O)(=O)C5CC5)c4)ccc3n2)cc1 [Example 231, 4-{[6-(3-Cyclopropanesulfonylamino-4-fluoro-phenyl)-4-(2,2,2-trifluoro-ethylamino)-pyrido[3,2-d]pyrimidin-2-ylamino]-methyl}-benzenesulfonamide]",> 25,< 0.1
"CCOc1nc(NCc2ccc(F)cc2)nc2ccc(-c3ccc(F)c(S(N)(=O)=O)c3)nc12 [Example 68, 5-[4-Ethoxy-2-(4-fluoro-benzylamino)-pyrido[3,2-d]pyrimidin-6-yl]-2-fluoro-benzenesulfonamide]",5 to 25,< 0.1
"CN(C)c1nc(NCc2ccc(F)cc2)nc2ccc(-c3ccc(F)cc3)nc12 [Example 51, 6-(4-Fluoro-phenyl)-N4-(N,N-dimethyl)-N2-(4-fluoro-benzyl)-pyrido[3,2-d]pyrimidine-2,4-diamine]",> 25,0.25 to 2
"CC(C)(C)OC(=O)N1CCC(NS(=O)(=O)c2cc(-c3ccc4nc(NCc5ccc(S(N)(=O)=O)cc5)nc(NCC(F)(F)F)c4n3)ccc2Cl)CC1 [Example 201, 4-{2-Chloro-5-[2-(4-sulfamoyl-benzylamino)-4-(2,2,2-trifluoro-ethylamino)-pyrido[3,2-d]pyrimidin-6-yl]-benzenesulfonylamino}-piperidine-1-carboxylic acid tert-butyl ester]",5 to 25,< 0.1
"CS(=O)(=O)N(CCO)c1cccc(-c2ccc3nc(NCc4ccc(S(N)(=O)=O)cc4)nc(NCC(F)F)c3n2)c1 [Example 157, 4-{[4-(2,2-Difluoroethyl)-amino-6-(4-(3-(N-2-hydroxyethyl)methane-sulfonamido)-phenyl)-pyrido[3,2-d]pyrimidin-2-ylamino]-methyl}-benzenesulfonamide]",> 25,< 0.1
"CCOc1nc(NCc2ccc(S(N)(=O)=O)cc2)nc2ccc(-c3ccc(F)cc3)nc12 [Example 109, 4-{[4-ethoxy-6-(4-fluoro-phenyl)-pyrido[3,2-d]pyrimidin-2-ylamino]-methyl}-benzenesulfonamide]",5 to 25,< 0.1
"N[C@@H](CO)C(=O)Nc1ccc(-c2ccc3nc(NCc4ccc(S(N)(=O)=O)cc4)nc(NC4CC4)c3n2)cc1 [Example 182, 2-Amino-N-{4-[4-cyclopropylamino-2-(4-sulfamoyl-benzylamino)-pyrido[3,2-d]pyrimidin-6-yl]-phenyl}-3-hydroxy-propionamide]",5 to 25,< 0.1
